Assay results as given in the supplement of paper PMC10307832.

How the values were obtained:
Experiment in all cases: relative viability (nuclei count vs DMSO), 5 days (fraction); higher = more cells survive
NCI-H1915 = test system: NCI-H1915
Summary of the method: (§1)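 Cells from lung cancer lines were seeded into 1536-well plates and, one day later, dosed by pin tool. Treatments were either a single drug or a fixed dose of an anchor drug with five library-drug doses (not always all listed) in √10 steps. After 5 days, nuclei were stained in a one-step fixation (final 0.05% Triton X-100, 1% formaldehyde, 1 ug/ml Hoechst) and counted on 4× images, and relative viability is the treated-to-vehicle nuclei ratio, as the median of duplicate plates.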

NCI-H23 = test system: NCI-H23
Summary of the method: as §1

PC-3 [JPC-3] = test system: PC-3 [JPC-3]
Summary of the method: as §1

LCLC-97TM1 = test system: LCLC-97TM1
Summary of the method: as §1

LU99A = test system: LU99A
Summary of the method: as §1

SK-LU-1 = test system: SK-LU-1
Summary of the method: as §1

A-427 = test system: A-427
Summary of the method: as §1

HARA = test system: HARA
Summary of the method: as §1

NCI-H460 = test system: NCI-H460
Summary of the method: as §1

NCI-H650 = test system: NCI-H650
Summary of the method: as §1

BEN = test system: BEN
Summary of the method: as §1

NCI-H441 = test system: NCI-H441
Summary of the method: as §1

NCI-H2023 = test system: NCI-H2023
Summary of the method: as §1

NCI-H2170 = test system: NCI-H2170
Summary of the method: as §1

NCI-H1666 = test system: NCI-H1666
Summary of the method: as §1

LXF-289 = test system: LXF-289
Summary of the method: as §1

NCI-H1944 = test system: NCI-H1944
Summary of the method: as §1

NCI-H322M = test system: NCI-H322M
Summary of the method: as §1

NCI-H2126 = test system: NCI-H2126
Summary of the method: as §1

NCI-H1563 = test system: NCI-H1563
Summary of the method: as §1

LOU-NH91 = test system: LOU-NH91
Summary of the method: as §1

NCI-H1755 = test system: NCI-H1755
Summary of the method: as §1

Q: For `CCCCCCCCCCCC1=C(O)C(=O)C=C(O)C1=O` [Embelin] + C[C@@H](Oc1cc(-c2cnn(C3CCNCC3)c2)cnc1N)c1c(Cl)ccc(F)c1Cl [Crizotinib] (partner 1 µM), which relative viability (NCI-H1915; first compound 0.08 µM) is on record?
A: 0.988

Q: And the relative viability (NCI-H1915; first compound 0.8 µM)?
A: 1.03

Q: What about the relative viability (NCI-H1915; first compound 2.53 µM) of the same compound?
A: 0.993

Q: What about the relative viability (NCI-H1915; first compound 8 µM) of the same compound?
A: 0.97

Q: What about the relative viability (NCI-H23; first compound 0.08 µM) of the same compound?
A: 0.554

Q: What about the relative viability (NCI-H23; first compound 0.8 µM) of the same compound?
A: 0.56

Q: What about the relative viability (NCI-H23; first compound 2.53 µM) of the same compound?
A: 0.55

Q: What about the relative viability (NCI-H23; first compound 8 µM) of the same compound?
A: 0.705

Q: And the relative viability (PC-3 [JPC-3]; first compound 0.08 µM)?
A: 0.948

Q: What about the relative viability (PC-3 [JPC-3]; first compound 0.8 µM) of the same compound?
A: 1.01

Q: What about the relative viability (PC-3 [JPC-3]; first compound 2.53 µM) of the same compound?
A: 1.06

Q: What about the relative viability (PC-3 [JPC-3]; first compound 8 µM) of the same compound?
A: 0.987

Q: And the relative viability (LCLC-97TM1; first compound 0.8 µM)?
A: 0.517

Q: And the relative viability (LCLC-97TM1; first compound 2.53 µM)?
A: 0.358

Q: What about the relative viability (LCLC-97TM1; first compound 8 µM) of the same compound?
A: 0.312

Q: What about the relative viability (LU99A; first compound 0.08 µM) of the same compound?
A: 0.605

Q: And the relative viability (LU99A; first compound 0.8 µM)?
A: 0.736

Q: What about the relative viability (LU99A; first compound 2.53 µM) of the same compound?
A: 0.55

Q: And the relative viability (LU99A; first compound 8 µM)?
A: 0.606

Q: And the relative viability (SK-LU-1; first compound 0.08 µM)?
A: 1.08

Q: And the relative viability (SK-LU-1; first compound 0.8 µM)?
A: 1.06

Q: What about the relative viability (SK-LU-1; first compound 2.53 µM) of the same compound?
A: 0.941

Q: What about the relative viability (SK-LU-1; first compound 8 µM) of the same compound?
A: 0.922

Q: What about the relative viability (A-427; first compound 0.08 µM) of the same compound?
A: 0.905

Q: What about the relative viability (A-427; first compound 0.8 µM) of the same compound?
A: 0.862

Q: What about the relative viability (A-427; first compound 2.53 µM) of the same compound?
A: 1.03

Q: What about the relative viability (A-427; first compound 8 µM) of the same compound?
A: 0.881

Q: What about the relative viability (HARA; first compound 0.08 µM) of the same compound?
A: 1.03

Q: And the relative viability (HARA; first compound 0.8 µM)?
A: 1.08

Q: What about the relative viability (HARA; first compound 2.53 µM) of the same compound?
A: 1.12

Q: And the relative viability (HARA; first compound 8 µM)?
A: 1.23

Q: And the relative viability (NCI-H460; first compound 0.08 µM)?
A: 0.818

Q: What about the relative viability (NCI-H460; first compound 0.8 µM) of the same compound?
A: 1.04

Q: What about the relative viability (NCI-H460; first compound 2.53 µM) of the same compound?
A: 1.02

Q: What about the relative viability (NCI-H460; first compound 8 µM) of the same compound?
A: 0.876

Q: What about the relative viability (NCI-H650; first compound 0.08 µM) of the same compound?
A: 0.772

Q: What about the relative viability (NCI-H650; first compound 0.8 µM) of the same compound?
A: 0.817

Q: And the relative viability (NCI-H650; first compound 2.53 µM)?
A: 0.711

Q: And the relative viability (NCI-H650; first compound 8 µM)?
A: 0.782

Q: And the relative viability (BEN; first compound 0.08 µM)?
A: 0.845

Q: And the relative viability (BEN; first compound 0.8 µM)?
A: 1.18

Q: What about the relative viability (BEN; first compound 2.53 µM) of the same compound?
A: 1.17

Q: What about the relative viability (BEN; first compound 8 µM) of the same compound?
A: 0.849

Q: What about the relative viability (NCI-H441; first compound 0.08 µM) of the same compound?
A: 0.749

Q: What about the relative viability (NCI-H441; first compound 0.8 µM) of the same compound?
A: 0.971

Q: What about the relative viability (NCI-H441; first compound 2.53 µM) of the same compound?
A: 0.788

Q: And the relative viability (NCI-H441; first compound 8 µM)?
A: 0.901

Q: What about the relative viability (NCI-H2023; first compound 0.08 µM) of the same compound?
A: 0.654

Q: What about the relative viability (NCI-H2023; first compound 0.8 µM) of the same compound?
A: 0.638

Q: And the relative viability (NCI-H2023; first compound 2.53 µM)?
A: 0.801

Q: And the relative viability (NCI-H2023; first compound 8 µM)?
A: 0.609

Q: And the relative viability (NCI-H2170; first compound 0.08 µM)?
A: 1.22

Q: And the relative viability (NCI-H2170; first compound 0.8 µM)?
A: 1.18

Q: What about the relative viability (NCI-H2170; first compound 2.53 µM) of the same compound?
A: 1.4

Q: What about the relative viability (NCI-H2170; first compound 8 µM) of the same compound?
A: 1.36

Q: What about the relative viability (NCI-H1666; first compound 0.08 µM) of the same compound?
A: 0.975

Q: And the relative viability (NCI-H1666; first compound 0.8 µM)?
A: 1.24

Q: What about the relative viability (NCI-H1666; first compound 2.53 µM) of the same compound?
A: 1.05

Q: And the relative viability (NCI-H1666; first compound 8 µM)?
A: 1.01

Q: What about the relative viability (LXF-289; first compound 0.08 µM) of the same compound?
A: 0.835

Q: What about the relative viability (LXF-289; first compound 0.8 µM) of the same compound?
A: 0.818

Q: What about the relative viability (LXF-289; first compound 2.53 µM) of the same compound?
A: 0.884

Q: And the relative viability (LXF-289; first compound 8 µM)?
A: 0.896

Q: What about the relative viability (NCI-H1944; first compound 0.08 µM) of the same compound?
A: 1.19

Q: And the relative viability (NCI-H1944; first compound 0.8 µM)?
A: 1.21

Q: And the relative viability (NCI-H1944; first compound 2.53 µM)?
A: 1.2

Q: And the relative viability (NCI-H1944; first compound 8 µM)?
A: 1.17

Q: And the relative viability (NCI-H322M; first compound 0.08 µM)?
A: 0.901

Q: And the relative viability (NCI-H322M; first compound 0.8 µM)?
A: 1.22

Q: And the relative viability (NCI-H322M; first compound 2.53 µM)?
A: 1.07

Q: What about the relative viability (NCI-H322M; first compound 8 µM) of the same compound?
A: 1.16

Q: And the relative viability (NCI-H2126; first compound 0.08 µM)?
A: 1.04

Q: And the relative viability (NCI-H2126; first compound 0.8 µM)?
A: 1.05

Q: And the relative viability (NCI-H2126; first compound 2.53 µM)?
A: 1.19

Q: And the relative viability (NCI-H2126; first compound 8 µM)?
A: 1.04

Q: What about the relative viability (NCI-H1563; first compound 0.08 µM) of the same compound?
A: 0.8

Q: And the relative viability (NCI-H1563; first compound 0.8 µM)?
A: 0.837

Q: And the relative viability (NCI-H1563; first compound 2.53 µM)?
A: 0.785

Q: And the relative viability (NCI-H1563; first compound 8 µM)?
A: 0.899

Q: What about the relative viability (LOU-NH91; first compound 0.08 µM) of the same compound?
A: 0.764

Q: What about the relative viability (LOU-NH91; first compound 0.8 µM) of the same compound?
A: 0.751

Q: And the relative viability (LOU-NH91; first compound 2.53 µM)?
A: 0.763

Q: What about the relative viability (LOU-NH91; first compound 8 µM) of the same compound?
A: 0.741

Q: What about the relative viability (NCI-H1755; first compound 0.08 µM) of the same compound?
A: 0.829

Q: What about the relative viability (NCI-H1755; first compound 0.8 µM) of the same compound?
A: 0.877

Q: And the relative viability (NCI-H1755; first compound 2.53 µM)?
A: 0.921

Q: And the relative viability (NCI-H1755; first compound 8 µM)?
A: 0.871
